Measured values reported in ChEMBL document CHEMBL1149881, “Syntheses of 4,6'-epoxymorphinan derivatives and their pharmacologies” (Bioorg Med Chem, 2008).
The source made the active and inactive calls. The rule behind the calls is not given here.

Columns and labels:
[1] = target: Kappa-type opioid receptor (Cavia porcellus, UniProt P41144); assay: Displacement of [3H]U69593 from kappa opioid receptor in guinea pig cerebellum
[2] = target: Delta-type opioid receptor (Mus musculus, UniProt P32300); assay: Displacement of [3H]DPDPE from delta opioid receptor in ICR mouse whole brain
[3] = target: Delta-type opioid receptor (Mus musculus) (UniProt P32300); assay: Inhibition of delta opioid receptor-mediated SNC80 induced activation of G-Protein in ICR mouse brain at 0.1 to 1 uM by [35S]GTPgammaS binding; format: functional, tissue-based
[4] = target: Mu-type opioid receptor (Mus musculus) (UniProt P42866); assay: Inhibition of mu opioid receptor-mediated DAMGO induced activation of G-Protein in ICR mouse brain at 0.1 to 1 uM by [35S]GTPgammaS binding; format: functional
[5] = target: Kappa-type opioid receptor (Cavia porcellus) (UniProt P41144); assay: Inhibition of kappa opioid receptor-mediated U50488 induced activation of G-Protein in guinea pig cerebellum at 0.1 to 1 uM by [35S]GTPgammaS binding; format: functional, tissue-based
Mu-type opioid receptor = Mu-type opioid receptor (Mus musculus, UniProt P42866); assay: Displacement of [3H]DAMGO from mu opioid receptor in ICR mouse whole brain
Mus musculus [6] = assay: Antinociceptive activity against sc dosed ICR mouse by tail flick method; format: functional, organism-based
[7] = target: Mu-type opioid receptor (Mus musculus) (UniProt P42866); assay: Activation of mu opioid receptor-mediated G-protein activation in ICR mouse whole brain at 10 uM by [35S]GTPgammaS binding in presence of Beta-FNA; format: functional
Mus musculus [8] = assay: Antinociceptive activity against sc dosed ICR mouse by hot plate method; format: functional, organism-based

Sequence of Mu-type opioid receptor (Mus musculus) (P42866 whole entry): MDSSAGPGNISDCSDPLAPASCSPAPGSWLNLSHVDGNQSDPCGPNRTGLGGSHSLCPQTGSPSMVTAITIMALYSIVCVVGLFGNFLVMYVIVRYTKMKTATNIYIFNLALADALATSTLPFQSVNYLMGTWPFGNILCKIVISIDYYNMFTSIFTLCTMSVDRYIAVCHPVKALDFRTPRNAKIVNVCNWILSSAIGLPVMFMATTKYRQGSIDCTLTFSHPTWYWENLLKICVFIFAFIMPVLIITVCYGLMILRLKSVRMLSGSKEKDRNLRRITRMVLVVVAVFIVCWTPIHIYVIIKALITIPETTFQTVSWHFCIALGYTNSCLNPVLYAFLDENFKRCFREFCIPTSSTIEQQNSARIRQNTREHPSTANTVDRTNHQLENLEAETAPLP
Sequence of Mu-type opioid receptor (P42866 whole entry): as above
Sequence of Delta-type opioid receptor (P32300 whole entry): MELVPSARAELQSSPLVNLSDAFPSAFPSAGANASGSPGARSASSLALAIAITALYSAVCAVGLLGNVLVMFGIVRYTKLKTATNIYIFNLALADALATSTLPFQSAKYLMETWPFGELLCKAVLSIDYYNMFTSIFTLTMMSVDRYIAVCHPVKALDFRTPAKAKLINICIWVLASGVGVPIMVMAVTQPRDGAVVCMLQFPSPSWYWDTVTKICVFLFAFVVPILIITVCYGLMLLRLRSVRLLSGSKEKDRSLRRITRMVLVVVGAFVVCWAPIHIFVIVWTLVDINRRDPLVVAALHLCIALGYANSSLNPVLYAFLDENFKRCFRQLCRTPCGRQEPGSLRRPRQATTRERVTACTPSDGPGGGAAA
Sequence of Kappa-type opioid receptor (P41144 whole entry): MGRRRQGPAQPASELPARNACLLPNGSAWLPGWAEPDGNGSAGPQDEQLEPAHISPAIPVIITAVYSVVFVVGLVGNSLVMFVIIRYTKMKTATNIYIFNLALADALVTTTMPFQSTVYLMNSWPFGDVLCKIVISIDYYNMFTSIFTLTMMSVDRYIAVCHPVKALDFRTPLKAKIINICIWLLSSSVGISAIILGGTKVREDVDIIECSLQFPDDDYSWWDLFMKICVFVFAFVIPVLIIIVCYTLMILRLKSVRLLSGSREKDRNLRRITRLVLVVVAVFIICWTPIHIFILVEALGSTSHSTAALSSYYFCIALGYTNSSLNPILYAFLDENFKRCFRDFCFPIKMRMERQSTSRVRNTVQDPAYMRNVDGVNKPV
Sequence of Delta-type opioid receptor (Mus musculus) (P32300 whole entry): as the sequence (P32300 whole entry) above
Sequence of Kappa-type opioid receptor (Cavia porcellus) (P41144 whole entry): as the sequence (P41144 whole entry) above

Structure (SMILES) | IC50 [1] | IC50 [2] | Activity [3] | Activity [4] | Activity [5] | IC50 (Mu-type opioid receptor) | Activity (Mus musculus [6]) | Activity [7] | Activity (Mus musculus [8])
Oc1ccc2c3c1OC[C@H]1CC[C@]4(O)[C@H](C2)N(CC2CC2)CC[C@@]34C1 | 0.00098 µM | 0.0573 µM | Active | Active | Active | 0.00121 µM |  |  | 
COc1ccc2c3c1OC[C@H]1CC[C@]4(O)[C@H](C2)N(C)CC[C@@]34C1 | < 0.5 µM | < 0.5 µM |  | Active |  | 0.183 µM | Dose-dependent effect | inactive | Dose-dependent effect
